Source: patent publication US20260345556A1, “Pharmaceutical Composition for Preventing or Treating Nephritis” (Daewoong Pharmaceutical Co., Ltd., priority 2022, published 2026)

Columns and labels:
CD4+ T cells = test: CD4+ T cell proliferation inhibition (CFSE staining, flow cytometry); format: cell-based; conditions: human blood CD4+ T cells; 1.25, 2.5, 5, 10 μM; 5 days; FIG. 2
Description: (§1) PBMCs were transferred to a new tube using a pipette. After RBC lysis buffer was added to PBMC, centrifugation was performed, and then CD8 or CD4 cells were isolated using CD8 MicroBeads (Miltenyl Biotec, 130-045-201) or CD4 MicroBeads (Miltenyl Biotec, 130-096-533). A CFSE (-(and-6)-Carboxyfluorescein Diacetate, Succinimidyl Ester) labeling solution (Invitrogen, C1157) was added to the isolated cells. The compounds of Examples were dissolved in DMSO to make a 5 mM stock, then treated to make 1.25 μM, 2.5 μM, 5 μM, and 10 μM, respectively. After 5 days, the degree of cell proliferation was measured by the amount of CFSE staining using flow cytometry, and the results are shown in FIG. 2.

CD8+ T cells = test: CD8+ T cell proliferation inhibition (CFSE staining, flow cytometry); format: cell-based; conditions: human blood CD8+ T cells; 1.25, 2.5, 5, 10 μM; 5 days; FIG. 2
Description: as §1

gdT cells = test: Inhibition of IL-17 factor in gdT cells (IL-17A ELISA); format: cell-based; conditions: gdT cells from normal human blood; 10 μM; IL-2 and IL-15 10 ng/ml each; FIG. 3
Description: After collecting 10 ml of normal human blood, ficoll density gradient medium (Cytiva, 17144003) and PBS, the immune cell layer (PBMC) was isolated using a centrifuge. PBMCs were transferred to a new tube using a pipette. After RBC lysis buffer was added to PBMC, centrifugation was performed, and then 10 ng/ml of human IL-2 and IL-15 protein (cytokine) were respectively added to the cells, and cultured (for the purpose of inducing IL-17A). The compounds of Examples were dissolved in DMSO to make a 5 mM stock, and then 10 μM of the example compound was treated. On the 3rd and 5th days of cytokine treatment, 10 ng/ml of human IL-2 and IL-15 proteins (cytokine) were added, centrifuged, and the supernatant was collected. The IL-17A expression level was confirmed with the collected supernatant using an IL-17A ELISA kit (DY371, R&D Systems), and the results are shown in FIG. 3.

C57BL/6 male mice [1] = test: Mouse renal failure treatment model by Adenine diet; format: in vivo; conditions: oral once a day 5, 10, 20 mg/kg for 2 weeks, starting 2 weeks after start of adenine
Description: (§2) A feed containing adenine was administered to C57BL/6 male mice as described in Ali et al. J Pharmacol Toxicol Methods 2013; Jia et al. BMC Nephrol 2013; Tanaka et al. Am J Pathol 2009. Starting 2 weeks after the start of adenine administration, 5 mg/kg, 10 mg/kg and 20 mg/kg of the compounds of Examples were orally administered daily for 2 weeks (FIG. 4). Physiological saline was administered to the negative control group (vehicle). Blood BUN and Creatinine, which are the primary indicators of kidney function, were measured.
Further, the degree of fibrosis of the mouse kidney tissue was measured through immunochemical staining, and the results are shown in FIG. 5.

[2] = test system: Rat kidney cell line (NRK-49F cell line); test: Fibrotic factor inhibition in rat kidney cell line (western blot); format: cell-based; conditions: 5 ng/ml TGFb, 2.5, 5, 10 μM, 48 hours, FIG. 6
[3] = test system: human primary kidney cells; test: Fibrotic factor inhibition in human primary kidney cells (western blot); format: cell-based; conditions: 5 ng/ml TGFb, 1.25 µM, 2.5 μM, 5 μM, 48 hours, FIG. 7
Description: Digestion buffer was added to human kidney tissue (preserved after biopsy), cut into small pieces with scissors, and then disintegrated through a shaker incubation for 90 minutes. After filtering the disintegrated tissue through a 70 μm filter cell strainer, the remaining tissue was filtered once again using a 40 μm filter cell strainer. The filtered disintegrated tissue solution was centrifuged, and the cells were isolated and cultured. The cultured cells were treated with 5 ng/ml TGFb and […], 2.5 μM, and 5 μM of the compounds of Examples, respectively, and then 48 hours later, cells were harvested, and western blot was performed to quantitatively analyze fibrotic factor proteins.

C57BL/6 male mice [4] = test: Mouse renal failure prevention model by Adenine diet; format: in vivo; conditions: oral once a day 5, 10, 20 mg/kg for 4 weeks, simultaneously with adenine
Description: as §2, with “2009. Simultaneously with” for “2009. Starting 2 weeks after”, “10 mg/kg,” for “10 mg/kg”, “for 4” for “for 2”, “(FIG. 8).” for “(FIG. 4).”
Additionally, the degree of fibrosis of the mouse kidney tissue was measured through immunochemical staining.

C57BL/6 male mice [5] = test: NTN (Nephrotoxic Serum-Induced Nephritis) model; format: in vivo, mouse; conditions: oral 5, 10, 20 mg/kg for 7 days from disease induction
Description: After sensitizing C57BL/6 male mice with 200 μg sheep IgG and Freund's […] adjuvant, 10 μg of sheep nephrotoxic serum was injected after five days to induce disease. From the day the disease was induced, the compounds of Examples were orally administered at doses of 5 mg/kg, 10 mg/kg, and 20 mg/kg for 7 days, respectively. Saline was administered to the negative control group (vehicle). On day 8, renal function (uPCR, BUN) was assessed.
The NTN model is a glomerulonephritis model that causes inflammation in the glomeruli, which induces proteinuria.

O[C@H]1CCCN[C@@H]1CCCn1cnc2c(Cl)c(Cl)ccc21 [Example]
CD4+ T cell proliferation (CD4+ T cells): cell proliferation is inhibited | CD8+ T cell proliferation (CD8+ T cells): cell proliferation is inhibited | IL-17 cytokine inhibition (gdT cells): inhibited | deterioration of renal function (blood BUN and Creatinine) (C57BL/6 male mice [1]; FIG. 4): significantly inhibited in a dose-dependent manner | accumulation of collagen in renal tissue (immunochemical staining) (C57BL/6 male mice [1]; FIG. 5): significantly inhibited in a dose-dependent manner | fibrotic factor collagen [2]: significantly inhibited | fibrotic factor fibronectin [2]: significantly inhibited | fibrotic factor αSMA [2]: significantly inhibited | fibrotic factor collagen [3]: significantly inhibited | fibrotic factor fibronectin [3]: significantly inhibited | fibrotic factor αSMA [3]: significantly inhibited | deterioration of renal function (blood BUN and Creatinine) (C57BL/6 male mice [4]; FIG. 8): significantly inhibited in a dose-dependent manner | preventive effect on kidney damage caused by Adenine diet (C57BL/6 male mice [4]; FIG. 8): exhibited preventive effect | collagen accumulation in renal tissue (immunochemical staining) (C57BL/6 male mice [4]; FIG. 9): significantly inhibited in a dose-dependent manner | effect on damaged glomerular tissue (C57BL/6 male mice [5]; FIG. 10 and FIG. 11 (immunochemical staining)): effective in damaged glomerular tissue | proteinuria (uPCR) (C57BL/6 male mice [5]; assessed day 8, PRSi 5 mg/kg on the left side of FIG. 10): significantly reducing proteinuria
